Measured values as given in the NIST ThermoML archive (doi:10.1016/j.jct.2016.03.029).
Numbers after ± are expanded uncertainties.

How the values were obtained:
[1] = refractive index (Na D-line) (dimensionless); settings: 100 kPa, Liquid, Standard Abbe refractometry
[2] = 100 kPa, Liquid; for speed of sound: Frequency=3 MHz, Sing-around technique in a fixed-path interferometer; for mass density: Vibrating tube method
[3] = refractive index (Na D-line) (dimensionless); xn = mol fraction of the nth substance listed; settings: 100 kPa, Liquid, Standard Abbe refractometry, x2 = 0
[4] = xn = mol fraction of the nth substance listed; settings: 100 kPa, Liquid, x2 = 0; for speed of sound: Frequency=3 MHz, Sing-around technique in a fixed-path interferometer; for mass density: Vibrating tube method

Row | SMILES | refractive index ([1]; 298.15 K) | refractive index ([1]; 303.15 K) | refractive index ([1]; 308.15 K) | refractive index ([1]; 313.15 K) | refractive index ([1]; 318.15 K) | refractive index ([1]; 323.15 K) | speed of sound ([2]; 298.15 K) [m/s] | mass density ([2]; 298.15 K) [kg/m3] | speed of sound ([2]; 303.15 K) [m/s] | mass density ([2]; 303.15 K) [kg/m3] | speed of sound ([2]; 308.15 K) [m/s] | mass density ([2]; 308.15 K) [kg/m3] | speed of sound ([2]; 313.15 K) [m/s] | mass density ([2]; 313.15 K) [kg/m3] | speed of sound ([2]; 318.15 K) [m/s] | mass density ([2]; 318.15 K) [kg/m3] | speed of sound ([2]; 323.15 K) [m/s] | mass density ([2]; 323.15 K) [kg/m3] | also measured
1 | CCCC[n+]1ccn(C)c1.O=S(=O)([N-]S(=O)(=O)C(F)(F)F)C(F)(F)F | 1.42671 ± 0.00085 | 1.42522 ± 0.00085 | 1.42373 ± 0.00085 | 1.42225 ± 0.00085 | 1.42076 ± 0.00085 | 1.41923 ± 0.00085 | 1227.9 ± 1.3 | 1433.72 ± 1 | 1216.8 ± 1.3 | 1428.92 ± 1 | 1205.8 ± 1.2 | 1424.13 ± 1 | 1195 ± 1.2 | 1419.36 ± 1 | 1184.2 ± 1.2 | 1414.61 ± 1 | 1173.6 ± 1.2 | 1409.88 ± 1 | 
2 | CN1CCCC1=O [N-methylpyrrolidone] | 1.46838 ± 0.00086 | 1.46626 ± 0.00086 | 1.46412 ± 0.00086 | 1.46199 ± 0.00086 | 1.45983 ± 0.00086 | 1.45771 ± 0.00086 | 1543.8 ± 1.4 | 1027.1 ± 1 | 1524.3 ± 1.4 | 1022.64 ± 1 | 1505 ± 1.4 | 1018.18 ± 1 | 1485.7 ± 1.4 | 1013.72 ± 1 | 1466.7 ± 1.4 | 1009.25 ± 1 | 1447.8 ± 1.4 | 1004.79 ± 1 | 
3 | CN1CCCC1=O [N-methylpyrrolidone] + CCCC[n+]1ccn(C)c1.O=S(=O)([N-]S(=O)(=O)C(F)(F)F)C(F)(F)F |  |  |  |  |  |  |  |  |  |  |  |  |  |  |  |  |  |  | refractive index ([3]; 298.15 K): 1.46838 ± 0.00086; refractive index ([3]; 303.15 K): 1.46626 ± 0.00086; refractive index ([3]; 308.15 K): 1.46412 ± 0.00086; refractive index ([3]; 313.15 K): 1.46199 ± 0.00086; refractive index ([3]; 318.15 K): 1.45983 ± 0.00086; refractive index ([3]; 323.15 K): 1.45771 ± 0.00086; speed of sound ([4]; 298.15 K): 1543.8 ± 1.4 m/s; mass density ([4]; 298.15 K): 1027.1 ± 1 kg/m3; speed of sound ([4]; 303.15 K): 1524.3 ± 1.4 m/s; mass density ([4]; 303.15 K): 1022.64 ± 1 kg/m3; speed of sound ([4]; 308.15 K): 1505 ± 1.4 m/s; mass density ([4]; 308.15 K): 1018.18 ± 1 kg/m3; speed of sound ([4]; 313.15 K): 1485.7 ± 1.4 m/s; mass density ([4]; 313.15 K): 1013.72 ± 1 kg/m3; speed of sound ([4]; 318.15 K): 1466.7 ± 1.4 m/s; mass density ([4]; 318.15 K): 1009.25 ± 1 kg/m3; speed of sound ([4]; 323.15 K): 1447.8 ± 1.4 m/s; mass density ([4]; 323.15 K): 1004.79 ± 1 kg/m3
